The subject of series [1] is ovariectomized Sprague-Dawley rats. The series can be described thus: Morphine withdrawal, rat hot flash model. Type of series: in vivo. As to conditions: LRL data. The text has this:
Morphine withdrawal, rat hot flash model: Simpkins et al. (1983) first published morphine withdrawal in the rat as a putative model for hot flashes, based on observations highlighting the similarity of symptoms of gonadal steroid withdrawal to those of opioid withdrawal. Although less severe, the signs and symptoms associated with clinical hot flashes, or estrogen deficiency, in the rat parallel those produced by naloxone-precipitated withdrawal in morphine dependent rats, including: 1) an increase in tail skin temperature, 2) a surge in luteinizing hormone and 3) an increase in heart rate. Each of these responses are associated with an increase in sympathetic outflow, which is a current mechanistic hypothesis for hot flashes. […] A key feature of animal models, is that they mimic the treatment efficacy observed with the human disease. The morphine withdrawal hot flash model, either in its originally described form, or with the modifications described herein, is responsive to agents typically used in the treatment of human hot flashes. This includes various forms of estrogen (Simpkins et al., 1983; LRL data), clonidine (LRL data), tibolone (LRL data), and medroxyprogesterone (LRL data). Furthermore, the model is sensitive to agents known to be associated with the induction of hot flashes in postmenopausal women.
A modification of the original procedure of Simpkins et al. (1983) is used which employs ovariectomized Sprague-Dawley rats. […]
On day 21 post-ovariectomy, animals are given […] (80 mg/kg; IM) 2-hours after final administration of the test compound. […] Temperature monitoring is initiated 30 minutes after administration of […] and is recorded every 15 seconds for a 1-hr period. […] A sharp rise in tail skin temperature typically occurs within 5 minutes post-naloxone injection, and two quantitative endpoints are made: 1) tail skin temperature at 15 min post-naloxone, and 2) area under the temperature response curve for the 45-min post-naloxone measurement period. […] Uteri are also removed at this time, and wet weight recorded.

For series [2] the following is noted: Phase III clinical studies; cited from earlier work.

Regarding `Clc1cccc(Cl)c1N=C1NCCN1` [clonidine], in series [1], the “responsiveness of the morphine withdrawal hot flash model to agents typically used in the treatment of human hot flashes” value (shortened to “responsiveness”) is given as “responsive”.

As for `O=C(c1ccc(OCCN2CCCCC2)cc1)c1c(-c2ccc(O)cc2)sc2cc(O)ccc12` [raloxifene], the “incidence of hot flash compared to placebo” value in series [2] was “slight increased incidence of hot flash”.

`C#C[C@]1(O)CC[C@H]2[C@@H]3[C@H](C)CC4=C(CCC(=O)C4)[C@H]3CC[C@@]21C` [tibolone]: the “responsiveness” value in series [1] was “responsive”.

Regarding medroxyprogesterone, the “responsiveness” value in series [1] is “responsive”.

Source of the values: patent publication US8217032B2, “Selective estrogen receptor modulators for the treatment of vasomotor symptoms” (Eli Lilly and Company, priority 2004, dated 2012).
